Species on record: Rattus norvegicus
Test: DrugMatrix - Regimen: Daily Repeat
Assay type: toxicity, organism-based, Sprague-Dawley
Design: regimen Daily Repeat, gender Male, age 6-8 weeks
Conditions: in vivo, po, route oral GAVAGE, […]; for ABSOLUTE BASOPHIL / ABSOLUTE EOSINOPHIL / ABSOLUTE LYMPHOCYTE / ABSOLUTE MONOCYTE / ABSOLUTE SEGMENTED NEUTROPHIL / BASOPHIL / EOSINOPHIL / ERYTHROCYTE COUNT / HEMATOCRIT / HEMOGLOBIN / LEUKOCYTE COUNT / LYMPHOCYTE / MEAN CORPUSCULAR HEMOGLOBIN / MEAN CORPUSCULAR HEMOGLOBIN CONCENTRATION / MEAN CORPUSCULAR VOLUME / MONOCYTE / NEUTROPHIL / NUCLEATED RED BLOOD CELLS / PLATELET COUNT: tissue Blood; for ALANINE AMINOTRANSFERASE / ALBUMIN / ALKALINE PHOSPHATASE / ASPARTATE AMINOTRANSFERASE / BLOOD UREA NITROGEN / CARBON DIOXIDE / CHLORIDE / CHOLESTEROL / CREATINE PHOSPHOKINASE / CREATININE / GLUCOSE / LACTATE DEHYDROGENASE / LIPASE / PHOSPHORUS / POTASSIUM / SODIUM / TOTAL BILIRUBIN / TOTAL PROTEIN / URIC ACID: tissue Plasma
[1] = 0 mg/kg, 72 h, dose level Control, time 3 day
[2] = 0 mg/kg, 120 h, dose level Control, time 5 day
[3] = 4 mg/kg, 72 h, dose level Low, time 3 day

SMILES: CSc1ccc2c(c1)N(CCC1CCCCN1C)c1ccccc1S2 (centres undefined) [THIORIDAZINE]
- ABSOLUTE BASOPHIL [1]: 0 CELLS/uL
- ABSOLUTE EOSINOPHIL [1]: 179.67 CELLS/uL
- ABSOLUTE LYMPHOCYTE [1]: 11440.17 CELLS/uL
- ABSOLUTE MONOCYTE [1]: 128.83 CELLS/uL
- ABSOLUTE SEGMENTED NEUTROPHIL [1]: 1051.33 CELLS/uL
- BASOPHIL [1]: 0%
- EOSINOPHIL [1]: 1.33%
- ERYTHROCYTE COUNT [1]: 5.53 x10E6/uL
- HEMATOCRIT [1]: 34.75%
- HEMOGLOBIN [1]: 12.88 G/DL
- LEUKOCYTE COUNT [1]: 12.8 x10E3/uL
- LYMPHOCYTE [1]: 89.5%
- MEAN CORPUSCULAR HEMOGLOBIN [1]: 23.38 pg
- MEAN CORPUSCULAR HEMOGLOBIN CONCENTRATION [1]: 37.12 G/DL
- MEAN CORPUSCULAR VOLUME [1]: 62.88 fL
- MONOCYTE [1]: 1%
- NEUTROPHIL [1]: 8.17%
- NUCLEATED RED BLOOD CELLS [1]: 0 /100WBC
- PLATELET COUNT [1]: 1292 x10E3/uL
- ALANINE AMINOTRANSFERASE [1]: 58.67 u/L
- ALBUMIN [1]: 4.25 G/DL
- ALKALINE PHOSPHATASE [1]: 437.83 u/L
- ASPARTATE AMINOTRANSFERASE [1]: 85.17 u/L
- BLOOD UREA NITROGEN [1]: 14.17 mg/dL
- CARBON DIOXIDE [1]: 28.67 mmol/L
- CHLORIDE [1]: 102.17 MEQ/L
- CHOLESTEROL [1]: 68.5 mg/dL
- CREATINE PHOSPHOKINASE [1]: 271.83 u/L
- CREATININE [1]: 0.2 mg/dL
- GLUCOSE [1]: 156.67 mg/dL
- LACTATE DEHYDROGENASE [1]: 112.33 u/L
- LIPASE [1]: 9.33 u/L
- PHOSPHORUS [1]: 11.1 mg/dL
- POTASSIUM [1]: 6.46 MEQ/L
- SODIUM [1]: 144.37 MEQ/L
- TOTAL BILIRUBIN [1]: 0.23 mg/dL
- TOTAL PROTEIN [1]: 5.8 G/DL
- URIC ACID [1]: 1.55 mg/dL
- ABSOLUTE BASOPHIL [2]: 0 CELLS/uL
- ABSOLUTE EOSINOPHIL [2]: 87 CELLS/uL
- ABSOLUTE LYMPHOCYTE [2]: 14743.5 CELLS/uL
- ABSOLUTE MONOCYTE [2]: 187 CELLS/uL
- ABSOLUTE SEGMENTED NEUTROPHIL [2]: 1499.17 CELLS/uL
- BASOPHIL [2]: 0%
- EOSINOPHIL [2]: 0.5%
- ERYTHROCYTE COUNT [2]: 5.84 x10E6/uL
- HEMATOCRIT [2]: 36.3%
- HEMOGLOBIN [2]: 13.55 G/DL
- LEUKOCYTE COUNT [2]: 16.52 x10E3/uL
- LYMPHOCYTE [2]: 89.5%
- MEAN CORPUSCULAR HEMOGLOBIN [2]: 23.25 pg
- MEAN CORPUSCULAR HEMOGLOBIN CONCENTRATION [2]: 37.35 G/DL
- MEAN CORPUSCULAR VOLUME [2]: 62.27 fL
- MONOCYTE [2]: 1.17%
- NEUTROPHIL [2]: 8.83%
- NUCLEATED RED BLOOD CELLS [2]: 0.17 /100WBC
- PLATELET COUNT [2]: 1233.5 x10E3/uL
- ALANINE AMINOTRANSFERASE [2]: 62.5 u/L
- ALBUMIN [2]: 4.17 G/DL
- ALKALINE PHOSPHATASE [2]: 464.33 u/L
- ASPARTATE AMINOTRANSFERASE [2]: 99.67 u/L
- BLOOD UREA NITROGEN [2]: 14.33 mg/dL
- CARBON DIOXIDE [2]: 26 mmol/L
- CHLORIDE [2]: 102.33 MEQ/L
- CHOLESTEROL [2]: 60.67 mg/dL
- CREATINE PHOSPHOKINASE [2]: 402.5 u/L
- CREATININE [2]: 0.22 mg/dL
- GLUCOSE [2]: 173.5 mg/dL
- LACTATE DEHYDROGENASE [2]: 518.17 u/L
- LIPASE [2]: 10.83 u/L
- PHOSPHORUS [2]: 11.4 mg/dL
- POTASSIUM [2]: 6.13 MEQ/L
- SODIUM [2]: 142.63 MEQ/L
- TOTAL BILIRUBIN [2]: 0.17 mg/dL
- TOTAL PROTEIN [2]: 6.1 G/DL
- URIC ACID [2]: 1.97 mg/dL
- ABSOLUTE BASOPHIL [3]: 0 CELLS/uL
- ABSOLUTE EOSINOPHIL [3]: 0 CELLS/uL
- ABSOLUTE LYMPHOCYTE [3]: 12903.67 CELLS/uL
- ABSOLUTE MONOCYTE [3]: 46 CELLS/uL
- ABSOLUTE SEGMENTED NEUTROPHIL [3]: 817 CELLS/uL
- BASOPHIL [3]: 0%
- EOSINOPHIL [3]: 0%
- ERYTHROCYTE COUNT [3]: 5.52 x10E6/uL
- HEMATOCRIT [3]: 35.4%
- HEMOGLOBIN [3]: 13.13 G/DL
- LEUKOCYTE COUNT [3]: 13.77 x10E3/uL
- LYMPHOCYTE [3]: 93.67%
- MEAN CORPUSCULAR HEMOGLOBIN [3]: 23.8 pg
- MEAN CORPUSCULAR HEMOGLOBIN CONCENTRATION [3]: 37.1 G/DL
- MEAN CORPUSCULAR VOLUME [3]: 64.17 fL
- MONOCYTE [3]: 0.33%
- NEUTROPHIL [3]: 6%
- NUCLEATED RED BLOOD CELLS [3]: 0 /100WBC
- PLATELET COUNT [3]: 1132.33 x10E3/uL
- ALANINE AMINOTRANSFERASE [3]: 50 u/L
- ALBUMIN [3]: 4.1 G/DL
- ALKALINE PHOSPHATASE [3]: 495.33 u/L
- ASPARTATE AMINOTRANSFERASE [3]: 79.67 u/L
- BLOOD UREA NITROGEN [3]: 12 mg/dL
- CARBON DIOXIDE [3]: 28.67 mmol/L
- CHLORIDE [3]: 101.67 MEQ/L
- CHOLESTEROL [3]: 70.67 mg/dL
- CREATINE PHOSPHOKINASE [3]: 382.67 u/L
- CREATININE [3]: 0.17 mg/dL
- GLUCOSE [3]: 176.33 mg/dL
- LACTATE DEHYDROGENASE [3]: 65.33 u/L
- LIPASE [3]: 9.67 u/L
- PHOSPHORUS [3]: 11.5 mg/dL
- POTASSIUM [3]: 6.31 MEQ/L
- SODIUM [3]: 142.93 MEQ/L
- TOTAL BILIRUBIN [3]: 0.2 mg/dL
- TOTAL PROTEIN [3]: 5.57 G/DL
- URIC ACID [3]: 1.93 mg/dL

From ChEMBL document CHEMBL3885881, “DrugMatrix”
